Biological target: T1, LpxC enzyme (Escherichia coli, UniProt P0A725)
T1 sequence (P0A725 1-305): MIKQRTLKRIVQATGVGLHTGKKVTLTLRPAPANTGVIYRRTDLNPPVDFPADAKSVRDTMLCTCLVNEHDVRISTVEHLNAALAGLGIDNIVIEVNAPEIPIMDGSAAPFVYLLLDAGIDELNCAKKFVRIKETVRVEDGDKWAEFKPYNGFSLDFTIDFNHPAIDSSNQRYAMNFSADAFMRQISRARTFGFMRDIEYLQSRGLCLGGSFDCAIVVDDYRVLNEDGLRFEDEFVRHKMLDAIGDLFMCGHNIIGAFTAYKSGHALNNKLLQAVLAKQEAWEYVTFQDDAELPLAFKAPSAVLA
Experiment: standard LpxC assay (RapidFire high-throughput mass spectrometry)
Type: biochemical
Conditions: 1.0 μM UDP-3-O-(R-3-hydroxymyristoyl)-N-acetylglucosamine, 60 minutes at room temperature, 2% DMSO; read-out: E.coli IC50
Experimental: The standard LpxC assay consists of […] LpxC enzyme, 1.0 μM UDP-3-O-(R-3-hydroxymyristoyl)-N-acetylglucosamine, and test compound, in assay buffer and 2% DMSO. Assay buffer is comprised of 25 mM HEPES, pH 7.3, 150 mM NaCl, 2.0 mM DTT, and 0.01% BSA. The enzyme reaction is carried out in a 96-well assay plate, in a final volume of 102 μL. Solutions of rest compounds are prepared in 100% DMSO. Reaction additions, in order, are (1) 2.0 μL compound solution, (2) 80 μL of assay buffer, (3) 10 μL of 10 μM UDP-3-O-(R-3-hydroxymyristoyl)-N-acetylgucosamine (in assay buffer) and, (4) 10 μL of LpxC enzyme (20 nM in assay buffer) to initiate the reaction. In positive control reactions, addition (1) has 2.0 μL of 100% DMSO (without compound); these reactions are used as the total signal (TSB) value. Reactions are incubated at room temperature for 60 minutes when 10 μL of 1 N HCl is added to stop the reaction. The plate is shaken by hand for 10 seconds to ensure complete quenching. […]
The concentrations of substrate and product in the reaction mixtures are determined with BioTrove's proprietary RapidFire™ high-throughput mass spectrometry (HTMS). […] The mass spectrometry peak areas of the substrate and product are measured to determine the concentration of these analytes. […] Percent inhibition, % I, in test samples is determined from the following equation: […]

Work on `C[C@@H](O)[C@@H](NC(=O)N1CCCC(c2ccc(C#Cc3ccccc3)cc2)C1)C(=O)NO` (some centres unmarked) [Compound 41] yielded an IC50 of 50 to 500 nM.

`C[C@@H](NC(=O)N[C@@H](C(=O)NO)[C@@H](C)O)c1ccc(-n2cccn2)cc1` [Compound 46] showed an IC50 of 5000 to 10000 nM.

Source: patent publication US20110212080A1, “UREA DERIVATIVES AS ANTIBACTERIAL AGENTS” (priority 2008, published 2011)
